Data reported in patent US7745139B1, “Peptides of the AT1 receptor and their uses” (Max-Delbrück-Centrum für Molekulare Medizin, priority 1998, dated 2010).
Entries after “also recorded” stand apart in the source; their conditions may differ.

Key:
[1] = system: anti-AT1 receptor auto-antibodies; test: Neutralisation of patients' antibodies by pre-treatment with AT1 receptor peptides, read out in the cardiomyocyte bioassay; type: cell-based, human; conditions: for Patients' antibodies, pre-treated with peptide (beat frequency bioassay): antibody 1:40 + peptide; for Annulment of the effect of the antibody by epitope peptides: antibodies of hypertension sufferers; for Neutralisation/inhibition of the agonistic effect of the auto-antibodies on the cells: antibodies of preeclampsia patients
Source text: (§1) Cultivated neo-natal rat heart cells were used as a bioassay.
To identify and characterise the AT1 receptor antibodies, a sensitive bioassay was used. […] Further, this agonistic effect was neutralised by a peptide corresponding to the second extra-cellular loop of the AT1 receptor. In order to identify the epitopes of the auto-antibodies on the second extra-cellular loops of the angiotensin II AT1 receptor, an attempt was made to neutralise the anti-AT1 receptor auto-antibodies with short overlapping peptides. […] These were the epitopes ENTNIT and AFHYESQ. In preeclampsia patients, the agonistic effect of the antibodies achieved via the AT1 receptor was only neutralised by the peptide AFHYESQ. This epitope has a special importance in this disease, as it was identified in all the patients examined. […] I.

AT1 receptor = target: T1, AT1 receptor (Rattus norvegicus, UniProt P25095); test: Bioassay: beat frequency of spontaneously pulsing cultivated neo-natal rat heart cells (cardiomyocytes); type: cell-based; conditions: for Influence on the positively chronotropic effect of angiotensin II: cells stimulated with angiotensin II; for Influence of receptor blockers on the positively chronotropic effect of the auto-antibodies: cells stimulated with anti-AT1 receptor auto-antibody
T1 construct: endogenous in cells; host or cells: primary culture of spontaneously pulsing neonatal rat cardiomyocytes
T1 sequence (P25095 1-359): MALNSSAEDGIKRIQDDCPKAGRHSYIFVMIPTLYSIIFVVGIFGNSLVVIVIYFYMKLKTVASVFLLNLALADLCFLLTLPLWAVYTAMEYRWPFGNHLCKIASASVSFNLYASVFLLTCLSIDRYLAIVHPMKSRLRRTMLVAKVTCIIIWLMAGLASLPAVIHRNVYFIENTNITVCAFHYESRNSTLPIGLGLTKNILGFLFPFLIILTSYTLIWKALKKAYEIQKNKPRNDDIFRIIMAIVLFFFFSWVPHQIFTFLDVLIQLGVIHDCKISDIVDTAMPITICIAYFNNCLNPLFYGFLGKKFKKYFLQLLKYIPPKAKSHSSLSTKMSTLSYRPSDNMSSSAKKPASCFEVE
Source text: The bio-assay entails • spontaneously pulsing neo-natal cardiomyocytes in primary culture or • cardiomyocytes differentiated from undifferentiated embryonal stem cells • in one culture medium
as §1
To identify and characterise the AT1 receptor antibodies, a sensitive bioassay was used. […] In order to identify the epitopes of the auto-antibodies on the second extra-cellular loops of the angiotensin II AT1 receptor, an attempt was made to neutralise the anti-AT1 receptor auto-antibodies with short overlapping peptides. […] I.

| Molecule | Patients' antibodies, pre-treated with peptide (beat frequency bioassay) ([1]; Patient No. 1) | Patients' antibodies, pre-treated with peptide (beat frequency bioassay) ([1]; Patient No. 2) | Neutralisation/inhibition of the agonistic effect of the auto-antibodies on the cells [1] | also measured |
| --- | --- | --- | --- | --- |
| AFHYESQ | 1.2 ± 0.84 | 1.6 ± 1.24 | inhibits the effect; also recorded: neutralised | Annulment of the effect of the antibody by epitope peptides [1]: annul the effect of the antibody |
| angiotensin II [angiotensin-II] |  |  |  | Chronotropic effect on cardiomyocytes (beat frequency / pulsation rate) (AT1 receptor; agonist alone): increase of the beat frequency |
| ENTNIT |  |  |  | Annulment of the effect of the antibody by epitope peptides [1]: annul the effect of the antibody |
| CCCCc1nc(Cl)c(CO)n1Cc1ccc(-c2ccccc2-c2nn[nH]n2)cc1 [Losartan] |  |  |  | Influence on the positively chronotropic effect of angiotensin II (AT1 receptor): blocked; Influence on the positively chronotropic effect of angiotensin II (AT1 receptor; listed as Losastan): inhibited; Influence of receptor blockers on the positively chronotropic effect of the auto-antibodies (AT1 receptor): stopped; Influence of receptor blockers on the positively chronotropic effect of the auto-antibodies (AT1 receptor; listed as Losastan): inhibited |
| loop II peptides: peptides portraying the part of the AT1 receptor corresponding to loop II (IHRNVFFIENTNITVCAFHYESQNSTL) |  |  | inhibit the antibody effect | Neutralisation/inhibition of the agonistic effect of the auto-antibodies on the cells ([1]; listed as peptide corresponding to the second extra-cellular loop of the AT1 receptor): neutralised |
| Cc1cc(Cn2cnc3c2C[C@@H](C(=O)O)N(C(=O)C(c2ccccc2)c2ccccc2)C3)ccc1N(C)C [PD 123319] |  |  |  | Influence of receptor blockers on the positively chronotropic effect of the auto-antibodies (AT1 receptor): no influence |

More lines, main results first:

| Patients' antibodies, pre-treated with peptide (beat frequency bioassay) ([1]; Patient No. 1) | Patients' antibodies, pre-treated with peptide (beat frequency bioassay) ([1]; Patient No. 2) | Molecule | Neutralisation/inhibition of the agonistic effect of the auto-antibodies on the cells [1] | also measured |
| --- | --- | --- | --- | --- |
| 0.8 ± 1.16 | 0.8 ± 0.80 | SHFYQTR [function-analog peptide] | neutralise the antibodies |  |
| 2.4 ± 0.72 | 2.8 ± 1.20 | GYYFDTN [function-analog peptide] | neutralise the antibodies |  |
